Results reported in ChEMBL document CHEMBL1201862, “PubChem BioAssay data set” (2004).
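All cell lines were grown in 96-well plates and treated with compound for 48 hours. Here, GI50 denotes the concentration required for 50% inhibition of growth.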 Calls of active or inactive are those of the source. Rule as the data show it: active = GI50 up to about 1.1 µM and inactive = higher.

How the values were obtained:
Test in all cases: NCI tumour cell line growth inhibition, 48 h
786-0 = tested on: 786-0
A498 = tested on: A498
A549 = tested on: A549
ACHN = tested on: ACHN
BT-549 = tested on: BT-549
CAKI-1 = tested on: CAKI-1
CCRF-CEM = tested on: CCRF-CEM
COLO 205 = tested on: COLO 205
DU-145 = tested on: DU-145
EKVX = tested on: EKVX
HCC 2998 = tested on: HCC 2998
HCT-116 = tested on: HCT-116
HCT-15 = tested on: HCT-15
HL-60 = tested on: HL-60
HOP-62 = tested on: HOP-62
HOP-92 = tested on: HOP-92
HT-29 = tested on: HT-29
Hs-578T = tested on: Hs-578T
IGROV-1 = tested on: IGROV-1
K562 = tested on: K562
KM12 = tested on: KM12
LOX IMVI = tested on: LOX IMVI
M14 = tested on: M14
MCF7 = tested on: MCF7
MDA-MB-231 = tested on: MDA-MB-231
MDA-MB-435 = tested on: MDA-MB-435
MDA-N = tested on: MDA-N
MOLT-4 = tested on: MOLT-4
Malme-3M = tested on: Malme-3M
NCI-H226 = tested on: NCI-H226
NCI-H23 = tested on: NCI-H23
NCI-H460 = tested on: NCI-H460
NCI-H522 = tested on: NCI-H522
NCI/ADR-RES = tested on: NCI/ADR-RES
OVCAR-3 = tested on: OVCAR-3
OVCAR-4 = tested on: OVCAR-4
OVCAR-5 = tested on: OVCAR-5
OVCAR-8 = tested on: OVCAR-8
PC-3 = tested on: PC-3
RPMI-8226 = tested on: RPMI-8226
RXF 393 = tested on: RXF 393
SF-268 = tested on: SF-268
SF-295 = tested on: SF-295
SF-539 = tested on: SF-539
SK-MEL-28 = tested on: SK-MEL-28
SK-MEL-2 = tested on: SK-MEL-2
SK-MEL-5 = tested on: SK-MEL-5
SK-OV-3 = tested on: SK-OV-3
SN12C = tested on: SN12C
SNB-19 = tested on: SNB-19
SNB-75 = tested on: SNB-75
SR = tested on: SR
SW-620 = tested on: SW-620
T47D = tested on: T47D
TK-10 = tested on: TK-10
U-251 = tested on: U-251
UACC-257 = tested on: UACC-257
UACC-62 = tested on: UACC-62
UO-31 = tested on: UO-31

**Q.** N=C(N)N/N=C(\c1ccc(F)cc1)c1ccc(C(F)(F)F)cc1 was tested. Which GI50 (786-0) did it give?
**A.** The GI50 was 294 nM (active).

**Q.** What about the GI50 (A498) of the same molecule?
**A.** The GI50 was < 10 nM (active).

**Q.** What about the GI50 (A549) of the same molecule?
**A.** Its GI50 is 412 nM (active).

**Q.** And the GI50 (ACHN)?
**A.** Its GI50 is 611 nM (active).

**Q.** And the GI50 (BT-549)?
**A.** Its GI50 is 593 nM (active).

**Q.** And the GI50 (CAKI-1)?
**A.** Its GI50 is 451 nM (active).

**Q.** What about the GI50 (CCRF-CEM) of the same molecule?
**A.** The GI50 was 329 nM (active).

**Q.** And the GI50 (COLO 205)?
**A.** Its GI50 is 294 nM (active).

**Q.** What about the GI50 (DU-145) of the same molecule?
**A.** The GI50 was 538 nM (active).

**Q.** And the GI50 (EKVX)?
**A.** The GI50 was 505 nM (active).

**Q.** What about the GI50 (HCC 2998) of the same molecule?
**A.** Its GI50 is 542 nM (active).

**Q.** And the GI50 (HCT-116)?
**A.** The GI50 was 104 nM (active).

**Q.** What about the GI50 (HCT-15) of the same molecule?
**A.** Its GI50 is 294 nM.

**Q.** And the GI50 (HL-60)?
**A.** The GI50 was 213 nM (active).

**Q.** And the GI50 (HOP-62)?
**A.** The GI50 was 273 nM (active).

**Q.** And the GI50 (HOP-92)?
**A.** Its GI50 is 1460 nM (inactive).

**Q.** What about the GI50 (HT-29) of the same molecule?
**A.** The GI50 was 412 nM (active).

**Q.** And the GI50 (Hs-578T)?
**A.** Its GI50 is 360 nM (active).

**Q.** What about the GI50 (IGROV-1) of the same molecule?
**A.** The GI50 was 284 nM (active).

**Q.** What about the GI50 (K562) of the same molecule?
**A.** Its GI50 is 132 nM (active).

**Q.** What about the GI50 (KM12) of the same molecule?
**A.** The GI50 was 203 nM (active).

**Q.** And the GI50 (LOX IMVI)?
**A.** The GI50 was 323 nM (active).

**Q.** What about the GI50 (M14) of the same molecule?
**A.** Its GI50 is 298 nM (active).

**Q.** And the GI50 (MCF7)?
**A.** Its GI50 is 242 nM (active).

**Q.** And the GI50 (MDA-MB-231)?
**A.** Its GI50 is 330 nM (active).

**Q.** What about the GI50 (MDA-MB-435) of the same molecule?
**A.** The GI50 was 75 nM (active).

**Q.** What about the GI50 (MDA-N) of the same molecule?
**A.** Its GI50 is 74.8 nM (active).

**Q.** What about the GI50 (MOLT-4) of the same molecule?
**A.** The GI50 was 358 nM (active).

**Q.** And the GI50 (Malme-3M)?
**A.** Its GI50 is 851 nM (active).

**Q.** And the GI50 (NCI-H226)?
**A.** Its GI50 is 348 nM (active).

**Q.** And the GI50 (NCI-H23)?
**A.** Its GI50 is 382 nM (active).

**Q.** What about the GI50 (NCI-H460) of the same molecule?
**A.** The GI50 was 332 nM (active).

**Q.** And the GI50 (NCI-H522)?
**A.** Its GI50 is 135 nM (active).

**Q.** What about the GI50 (NCI/ADR-RES) of the same molecule?
**A.** Its GI50 is 344 nM (active).

**Q.** What about the GI50 (OVCAR-3) of the same molecule?
**A.** The GI50 was 330 nM (active).

**Q.** What about the GI50 (OVCAR-4) of the same molecule?
**A.** Its GI50 is 1100 nM (active).

**Q.** What about the GI50 (OVCAR-5) of the same molecule?
**A.** Its GI50 is 497 nM (active).

**Q.** And the GI50 (OVCAR-8)?
**A.** The GI50 was 376 nM (active).

**Q.** What about the GI50 (PC-3) of the same molecule?
**A.** The GI50 was 357 nM (active).

**Q.** And the GI50 (RPMI-8226)?
**A.** The GI50 was 376 nM (active).

**Q.** And the GI50 (RXF 393)?
**A.** The GI50 was 220 nM (active).

**Q.** And the GI50 (SF-268)?
**A.** Its GI50 is 593 nM (active).

**Q.** And the GI50 (SF-295)?
**A.** Its GI50 is 264 nM (active).

**Q.** And the GI50 (SF-539)?
**A.** Its GI50 is 270 nM (active).

**Q.** What about the GI50 (SK-MEL-28) of the same molecule?
**A.** The GI50 was 940 nM (active).

**Q.** And the GI50 (SK-MEL-2)?
**A.** Its GI50 is 1240 nM (inactive).

**Q.** What about the GI50 (SK-MEL-5) of the same molecule?
**A.** The GI50 was 466 nM (active).

**Q.** And the GI50 (SK-OV-3)?
**A.** Its GI50 is 817 nM (active).

**Q.** What about the GI50 (SN12C) of the same molecule?
**A.** The GI50 was 640 nM (active).

**Q.** What about the GI50 (SNB-19) of the same molecule?
**A.** The GI50 was 573 nM (active).

**Q.** What about the GI50 (SNB-75) of the same molecule?
**A.** The GI50 was 1750 nM (inactive).

**Q.** And the GI50 (SR)?
**A.** Its GI50 is 284 nM (active).

**Q.** And the GI50 (SW-620)?
**A.** Its GI50 is 254 nM (active).

**Q.** And the GI50 (T47D)?
**A.** The GI50 was 2080 nM (inactive).

**Q.** And the GI50 (TK-10)?
**A.** Its GI50 is 1660 nM (inactive).

**Q.** What about the GI50 (U-251) of the same molecule?
**A.** The GI50 was 473 nM (active).

**Q.** And the GI50 (UACC-257)?
**A.** The GI50 was 1160 nM (inactive).

**Q.** And the GI50 (UACC-62)?
**A.** Its GI50 is 282 nM (active).

**Q.** What about the GI50 (UO-31) of the same molecule?
**A.** The GI50 was 530 nM (active).

**Q.** What does the source list for CCN(CC)CCn1ncc2ccc3c(c(=O)c4cccnc4n3CCN(CC)CC)c21?
**A.** GI50 (786-0): 438 nM (active); GI50 (A498): 598 nM (active); GI50 (A549): 618 nM (active); GI50 (ACHN): 733 nM (active); GI50 (BT-549): 2250 nM (inactive); GI50 (CAKI-1): 3540 nM (inactive); GI50 (CCRF-CEM): 348 nM (active); GI50 (COLO 205): 493 nM (active); GI50 (DU-145): 2410 nM (inactive); GI50 (EKVX): 1290 nM (inactive); GI50 (HCC 2998): 750 nM (active); GI50 (HCT-116): 385 nM (active); GI50 (HCT-15): 743 nM; GI50 (HL-60): 1090 nM (active); GI50 (HOP-62): 867 nM (active); GI50 (HOP-92): 1380 nM (inactive); GI50 (HT-29): 435 nM (active); GI50 (Hs-578T): 2170 nM (inactive); GI50 (IGROV-1): 625 nM (active); GI50 (K562): 119 nM (active); GI50 (KM12): 603 nM (active); GI50 (LOX IMVI): 521 nM (active); GI50 (M14): 1410 nM (inactive); GI50 (MCF7): 618 nM (active); GI50 (MDA-MB-231): 1670 nM (inactive); GI50 (MDA-MB-435): 655 nM (active); GI50 (MDA-N): 861 nM (active); GI50 (MOLT-4): 344 nM (active); GI50 (Malme-3M): 1750 nM (inactive); GI50 (NCI-H226): 1700 nM (inactive); GI50 (NCI-H23): 1290 nM (inactive); GI50 (NCI-H460): 403 nM (active); GI50 (NCI-H522): 845 nM (active); GI50 (NCI/ADR-RES): 1450 nM (inactive); GI50 (OVCAR-3): 1130 nM (inactive); GI50 (OVCAR-4): 933 nM (active); GI50 (OVCAR-5): 1090 nM (active); GI50 (OVCAR-8): 561 nM (active); GI50 (PC-3): 986 nM (active); GI50 (RPMI-8226): 931 nM (active); GI50 (RXF 393): 670 nM (active); GI50 (SF-268): 1350 nM (inactive); GI50 (SF-295): 1300 nM (inactive); GI50 (SF-539): 589 nM (active); GI50 (SK-MEL-28): 2050 nM (inactive); GI50 (SK-MEL-2): 1790 nM (inactive); GI50 (SK-MEL-5): 1090 nM (active); GI50 (SK-OV-3): 1160 nM (inactive); GI50 (SN12C): 621 nM (active); GI50 (SNB-19): 1970 nM (inactive); GI50 (SNB-75): 1050 nM (active); GI50 (SR): 284 nM (active); GI50 (SW-620): 519 nM (active); GI50 (T47D): 2280 nM (inactive); GI50 (TK-10): 2240 nM (inactive); GI50 (U-251): 597 nM (active); GI50 (UACC-257): 1880 nM (inactive); GI50 (UACC-62): 2490 nM (inactive); GI50 (UO-31): 1500 nM (inactive)
